The text below walks through data of patent US7884070B2, “Linear cationic peptides having antibacterial and/or antifungal properties” (priority 2002, dated 2011).

Series [1] relates to Acinetobacter baumanii ATCC 19606. It is filed as cell-based.
Series [2] concerns Citrobacter freundii ATCC 8090. The series is classed as cell-based.
The subject of series [3] is Enterobacter aerogenes ATCC 13048. The series is classed as cell-based.
Series [4] deals with Enterobacter cloacae ATCC 23355. The series is classed as cell-based.
The subject of series [5] is Escherichia coli ATCC 25922. The series is classed as cell-based.
Series [6] concerns Escherichia coli ATCC 35218. The series is classed as cell-based.
Series [7] deals with Haemophilus influenzae ATCC 49247. The series is classed as cell-based.
Series [8] relates to Klebsiella pneumoniae ATCC 13883. It is filed as cell-based.
For series [9], the system named is Listeria monocytogenes ATCC 19115. The series is classed as cell-based.
In a further series the test system is Neisseria sica ATCC 9913. The series is classed as cell-based.
Series [10] concerns Proteus vulgaris ATCC 13315. The series is classed as cell-based.
Series [11] has as its system Pseudomonas aeruginosa ATCC 27853. The series is classed as cell-based.
Series [12] deals with Salmonella typhimurium ATCC 14028. The series is classed as cell-based.
Series [13] has as its system Serratia marcescens ATCC 8100. The series is classed as cell-based.
For series [14], the system named is Shigella sonnei ATCC 25931. On the procedure: The MIC values were determined by the method of microdilution in liquid medium (NCCLS M7A5) for all of the bacterial species on 96-well polystyrene plates.
The culture medium was Mueller-Hinton broth (MHB) (pH≈7.2-7.4) with supplements according to the bacterial species studied: • MHB alone for the non-exigent species, • MHB+3% lysed horse blood for the streptococci, Listeria and Neisseria, • MHB+hemin 15 mg/l+NAD 15 mg/l+yeast extract 5 g/l for Haemophilus.
The bacterial inoculum was prepared from re-isolation performed on: • CLED agar: non-exigent strains, • blood agar+5% goat blood: streptococci, Listeria and Neisseria • chocolate agar+5% goat blood: Haemophilus, Neisseria.
The final inoculum was at ≈5·10^5 cfu/ml (colony forming units). 50 μl of bacterial inoculum was distributed per well containing an equal volume of the peptide solution diluted by half in the appropriate culture medium depending on the bacterial species (0.5 to 512 μg/ml). The cultures were incubated at 35° C. in ambient air for 16 to 20 hours (20 to 24 h for the streptococci).
Determination of the MBC values was performed after inhibition and reading of the MIC plates:
A volume of 3 μl of each concentration of antibiotic was deposited on the agar media: • MH: for the non-exigent strains, • MH+5% sheep blood: for the streptococci, Listeria, Bacillus and Neisseria, • HTM: for the Haemophilus.
The agars were incubated for 18 h at 35° C. in atmosphere: • in ambient air: for the non-exigent strains, • with 5-6% of CO2: for the streptococci, Listeria, Haemophilus and Neisseria.
The MBC is the lowest concentration of antibiotic that inhibits all bacterial growth on the transplant agar (<0. 1% of survivors).

In series [15] the test system is Bacillus cereus ATCC 11778. The series is classed as cell-based.
In series [16] the test system is Bacillus subtilis ATCC 6633. It is filed as cell-based.
Series [17] deals with Enterococcus faecalis ATCC 19433. It is filed as cell-based.
Series [18] has as its system Enterococcus faecalis ATCC 29212. It is filed as cell-based.
Series [19] has as its system Enterococcus faecium ATCC 35667. It is filed as cell-based.
The subject of series [20] is Micrococcus luteus ATCC 9341. The series is classed as cell-based.
Series [21] has as its system Staphylococcus aureus ATCC 14154. It is filed as cell-based.
The test system of series [22] is Staphylococcus aureus ATCC 25923. The series is classed as cell-based.
For series [23], the system named is Staphylococcus epidermidis ATCC 12228. The series is classed as cell-based.
In series [24] the test system is Streptococcus agalactiae ATCC 13813. It is filed as cell-based.
For series [25], the system named is Streptococcus pneumoniae ATCC 6303. The series is classed as cell-based.
Series [26] has as its system Streptococcus pneumoniae ATCC 49619. It is filed as cell-based.
In series [27] the test system is Streptococcus pyogenes ATCC 19615. It is filed as cell-based.
A further series relates to C. neoformans Cn52D. It is filed as cell-based, Cryptococcus neoformans. On the procedure:
D. Determination of the miminimal inhibitory concentration (MIC) in liquid medium for the Filamentous Fungi and Yeast
Peptide concentrations tested: from 0.2 μg/ml to 100 μg/ml.

Series [28] in a line: In vivo toxicity: maximal tolerated dose (MTD). The conditions noted are these: mouse, female OFI mice, intravenous perfusion approx. 15 minutes, 28 days after an injection. Here is the method: The maximal tolerated dose (MTD) for each peptide was determined on female OFI mice at 28 days after an injection. The MTD was defined as the maximal nonlethal dose that could be injected. The peptides were administered by the intravenous route as a perfusion of approximately 15 minutes duration. The injection volume was 10 μl/g, the perfusion rate was 1.2 ml/hour and the excipient was a solution of NaCl at 0.8%.

Series [29] deals with Shigella flexneri ATCC 112022.
The test system of a further series is bacteria. Briefly: In vitro antibacterial properties under standard evaluation conditions (incubation of 18 hours). The series is classed as cell-based. The conditions noted are these: concentrations described in the literature. The text has this: In contrast, I unexpectedly discovered that KLAKLAK (SEQ ID NO: 11) is capable of conferring antibacterial and/or antifungal properties on peptides comprising this motif and a peptide sequence not having antibacterial and/or antifungal properties.

The test system of series [30] is three strains of bacteria (E. coli, P. aeruginosa and S. aureus). The conditions noted are these: incubation period of 4 hours; cited from earlier work.
The conditions of series [31]: Javadpour et al. 1996; cited from earlier work.
Another series concerns human erythrocytes. Kind of series: Hemolytic activity on human erythrocytes. The conditions noted are these: 30 minutes, 0 to 500 μg/ml, absorbance 414 nm.

Values after ≈ are worked out from the molar mass of the structure shown. Where two headings read alike, the source gives them in different places. Where a SMILES comes first, the peptide text is derived from it.

Procedure for human erythrocytes: 1·10^6 human erythrocytes were incubated for 30 minutes with increasing concentrations of peptides (from 0 to 500 μg/ml) in a final volume of 150 μl. The hemolytic activity was evaluated by measurement of the absorbance (Abs) at the wave length 414 nm (Absorbance of hemoglobin) of the cellular supernatants. The absorbance of the supernatant after incubation of the erythrocytes in water corresponds to 100% (Abs100) of hemolysis and the absorbance of the supernatant after incubation of the erythrocytes in PBS corresponds to 0% of hemolysis (Abs0). The hemolytic activity of the peptides expressed in percentage corresponds to (Abspeptide−Abs0)/Abs100×100.

As a reminder, the MTD is the highest dose tested that stayed within the study's limit of toxicity. Read a high MTD as a wide tolerated range. On to `CC(C)C[C@H](NC(=O)CNC(=O)[C@H](CCCNC(=N)N)NC(=O)[C@H](CCCCN)NC(=O)[C@@H](N)C(C)C)C(=O)N[C@@H](CCCCN)C(=O)N[C@@H](CC(C)C)C(=O)N[C@@H](CCCCN)C(=O)N[C@@H](CC(C)C)C(=O)N[C@@H](C)C(=O)N[C@@H](CCCCN)C(=O)N[C@@H](CC(C)C)C(=O)N[C@@H](C)C(=O)N[C@@H](CCCCN)C(=O)N[C@@H](CCCCN)C(=O)N[C@@H](CC(C)C)C(=O)N[C@@H](C)C(=O)N[C@@H](CCCCN)C(=O)N[C@@H](CC(C)C)C(=O)N[C@@H](C)C(=O)N[C@@H](CCCCN)C(=O)O` [Peptide 1] (H-VKRGLKLKLAKLAKKLAKLAK-OH; N-terminus and C-terminus assumed), for which the MBC in [1] is 16 µg/mL (≈ 6.9 µM); in series [2], 16 µg/mL (≈ 6.9 µM); in series [3] it was 256 µg/mL (≈ 110 µM); in series [4] it was 16 µg/mL (≈ 6.9 µM); in [5], 16 µg/mL (≈ 6.9 µM); in series [6], 8 µg/mL (≈ 3.45 µM). Besides, the MBC is 64 µg/mL (≈ 27.6 µM) in series [7]; over 512 µg/mL in [8]; 128 µg/mL (≈ 55.2 µM) in [9]; 128 µg/mL (≈ 55.2 µM) in the series on Neisseria sica ATCC 9913; 256 µg/mL (≈ 110 µM) in series [10]; over 512 µg/mL in series [11]. Further, the MBC in [12] was 8 µg/mL (≈ 3.45 µM); in series [13] it was over 512 µg/mL; in series [14], 4 µg/mL (≈ 1.72 µM); in series [15], 128 µg/mL (≈ 55.2 µM); in series [16] it was 8 µg/mL (≈ 3.45 µM); in [17], over 512 µg/mL. In addition, the MBC in series [18] was over 512 µg/mL; in series [19], over 512 µg/mL; in series [20], 4 µg/mL (≈ 1.72 µM); in [21], 128 µg/mL (≈ 55.2 µM); in series [22] it was 64 µg/mL (≈ 27.6 µM); in series [23], 4 µg/mL (≈ 1.72 µM). Besides, the MBC in series [24] was found to be 128 µg/mL (≈ 55.2 µM); in series [25], 64 µg/mL (≈ 27.6 µM); in series [26], 256 µg/mL (≈ 110 µM); in series [27] it was 64 µg/mL (≈ 27.6 µM); in series [29], 32 µg/mL (≈ 13.8 µM). Besides, the MIC in series [1] turned out to be 8 µg/mL (≈ 3.45 µM); in series [2], 16 µg/mL (≈ 6.9 µM); in [3], 256 µg/mL (≈ 110 µM); in series [4], 16 µg/mL (≈ 6.9 µM); in [5], 16 µg/mL (≈ 6.9 µM); in [6], 8 µg/mL (≈ 3.45 µM). In addition, the MIC in series [7] is 64 µg/mL (≈ 27.6 µM); in series [8], over 512 µg/mL; in series [9] it was 128 µg/mL (≈ 55.2 µM); in the series on Neisseria sica ATCC 9913, 4 µg/mL (≈ 1.72 µM); in series [10], 128 µg/mL (≈ 55.2 µM); in series [11], 512 µg/mL (≈ 221 µM). Besides, the MIC in series [12] was 8 µg/mL (≈ 3.45 µM); in series [13] it was over 512 µg/mL; in series [14], 4 µg/mL (≈ 1.72 µM); in series [15], 128 µg/mL (≈ 55.2 µM); in series [16] it was 8 µg/mL (≈ 3.45 µM); in series [17], over 512 µg/mL. Also, the MIC in series [18] was over 512 µg/mL; in series [19] it was 128 µg/mL (≈ 55.2 µM); in series [20], 4 µg/mL (≈ 1.72 µM); in [21], 64 µg/mL (≈ 27.6 µM); in series [22], 64 µg/mL (≈ 27.6 µM); in [23], 4 µg/mL (≈ 1.72 µM). The MIC in series [24] turned out to be 128 µg/mL (≈ 55.2 µM); in series [25], 64 µg/mL (≈ 27.6 µM); in series [26], 128 µg/mL (≈ 55.2 µM); in series [27] it was 64 µg/mL (≈ 27.6 µM); against C. neoformans Cn52D, 12.5 µg/mL (≈ 5.39 µM); in [29], 16 µg/mL (≈ 6.9 µM). In addition, the maximum tolerated dose (MTD) at 28 days in series [28] was over 23.2 mg/kg.

Take “KLAKLAKKLAKLAK [14-mer linear peptide, literature 14-mer linear peptide (Javadpour et al. 1996)]”: the values for the antibacterial activity result (with bacteria; in series [30]) were “did not reveal any biological activity” and “showed activity”, respectively. The hemolysis entry in series [31] is reported as “nonhemolytic”.

In the case of `CC(C)C[C@H](NC(=O)[C@H](CCCCN)NC(=O)CNC(=O)[C@H](CCCCN)NC(=O)[C@H](CCCCN)NC(=O)[C@H](CCCCN)NC(=O)[C@H](CCCNC(=N)N)NC(=O)[C@H](CCCCN)NC(=O)CNC(=O)[C@H](CCCCN)NC(=O)[C@H](C)NC(=O)[C@H](CC(C)C)NC(=O)[C@H](CCCCN)NC(=O)[C@H](C)NC(=O)[C@H](CC(C)C)NC(=O)[C@H](CCCCN)NC(=O)[C@H](CCCCN)NC(=O)[C@H](C)NC(=O)[C@H](CC(C)C)NC(=O)[C@H](CCCCN)NC(=O)[C@H](C)NC(=O)[C@H](CC(C)C)NC(=O)[C@@H](N)CCCCN)C(=O)NCC(=O)N[C@@H](CCCCN)C(=O)N[C@@H](CCCCN)C(=O)N[C@@H](CCCNC(=N)N)C(=O)N[C@@H](CC(=O)O)C(=O)N1CCC[C@H]1C(=O)O` [Peptide 3] (H-KLAKLAKKLAKLAKGKRKKKGKLGKKRDP-OH; N-terminus and C-terminus assumed), the MIC in series [6] was 64 µg/mL (≈ 19.8 µM); in series [11], 64 µg/mL (≈ 19.8 µM); in series [18], 64 µg/mL (≈ 19.8 µM); in series [22], 64 µg/mL (≈ 19.8 µM); in [25], over 500 µg/mL; in the series with C. neoformans Cn52D (tested 0.2 to 100 μg/ml) it was 1.56 µg/mL (≈ 0.483 µM). In the series on human erythrocytes, the hemolytic activity entry was “did not exhibit hemolytic activity”.
